Reference: the supplement of paper PMC4862054

Key:
Conditions in all cases: incubation time: 72 h
CAL-51 [1] = test: normalised response (% of control), CellTiter-Glo; higher = more viable cells (100 = DMSO, 0 = benzethonium chloride kill control)
Description: (§1)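 DSRT, 72 h incubation, CellTox Green / CellTiter-Glo readout. Signal is normalised to DMSO and benzethonium chloride controls. Value is the normalised response at the highest dose.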

BT-474 [2] = test: as above
Description: as §1

BT-549 [3] = test: as above
Description: as §1

CAL-85-1 [4] = test: as above
Description: as §1

CAL-120 [5] = test: as above
Description: as §1

Hs578T [6] = test: as above
Description: as §1

MDA-MB-231 [7] = test: as above
Description: as §1

MFM-223 [8] = test: as above
Description: as §1

HCC1143 [9] = test: as above
Description: as §1

DU-4475 [10] = test: as above
Description: as §1

MDA-MB-468 [11] = test: as above
Description: as §1

HDQ-P1 [12] = test: as above
Description: as §1

HCC1599 [13] = test: as above
Description: as §1

HCC1937 [14] = test: as above
Description: as §1

CAL-148 [15] = test: as above
Description: as §1

MDA-MB-436 [16] = test: as above
Description: as §1

MCF-10A [17] = test: as above
Description: as §1

MDA-MB-453 [18] = test: as above
Description: as §1

SK-BR-3 = test: as above
Description: as §1

CAL-51 [19] = test: normalised response (% of control), CellTox Green; higher = less cell death (100 = DMSO, 0 = benzethonium chloride kill control)
Procedure, shortened: (§2)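 For each plate, 0.1 % DMSO was set to 100 and a positive kill control to 0. Breast cancer cell lines (20 µl suspension) were seeded into 384-well plates already holding compound at 5 concentrations in 10-fold steps over a 10,000-fold range chosen per compound, and incubated for 72 h. CellTox Green fluorescence at 485/520 nm was read before CellTiter-Glo luminescence, which followed 10 min at room temperature. Each value is the normalised signal at one concentration.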

BT-474 [20] = test: as above
Procedure, shortened: as §2

BT-549 [21] = test: as above
Procedure, shortened: as §2

CAL-85-1 [22] = test: as above
Procedure, shortened: as §2

CAL-120 [23] = test: as above
Procedure, shortened: as §2

Hs578T [24] = test: as above
Procedure, shortened: as §2

MDA-MB-231 [25] = test: as above
Procedure, shortened: as §2

MFM-223 [26] = test: as above
Procedure, shortened: as §2

HCC1143 [27] = test: as above
Procedure, shortened: as §2

DU-4475 [28] = test: as above
Procedure, shortened: as §2

MDA-MB-468 [29] = test: as above
Procedure, shortened: as §2

HDQ-P1 [30] = test: as above
Procedure, shortened: as §2

HCC1599 [31] = test: as above
Procedure, shortened: as §2

CAL-148 [32] = test: as above
Procedure, shortened: as §2

MDA-MB-436 [33] = test: as above
Procedure, shortened: as §2

MCF-10A [34] = test: as above
Procedure, shortened: as §2

MDA-MB-453 [35] = test: as above
Procedure, shortened: as §2

HCC1937 [36] = test: as above
Procedure, shortened: as §2

Row | Compound | normalised response (CAL-51 [1]) [%] | normalised response (BT-474 [2]) [%] | normalised response (BT-549 [3]) [%] | normalised response (CAL-85-1 [4]) [%] | normalised response (CAL-120 [5]) [%] | normalised response (Hs578T [6]) [%] | normalised response (MDA-MB-231 [7]) [%] | normalised response (MFM-223 [8]) [%] | normalised response (HCC1143 [9]) [%] | normalised response (DU-4475 [10]) [%] | normalised response (MDA-MB-468 [11]) [%] | normalised response (HDQ-P1 [12]) [%] | normalised response (HCC1599 [13]) [%] | normalised response (HCC1937 [14]) [%] | normalised response (CAL-148 [15]) [%] | normalised response (MDA-MB-436 [16]) [%] | normalised response (MCF-10A [17]) [%] | normalised response (MDA-MB-453 [18]) [%] | normalised response (SK-BR-3) [%] | normalised response (CAL-51 [19]) [%] | normalised response (BT-474 [20]) [%] | normalised response (BT-549 [21]) [%] | normalised response (CAL-85-1 [22]) [%] | normalised response (CAL-120 [23]) [%] | normalised response (Hs578T [24]) [%] | normalised response (MDA-MB-231 [25]) [%] | normalised response (MFM-223 [26]) [%] | normalised response (HCC1143 [27]) [%] | normalised response (DU-4475 [28]) [%] | normalised response (MDA-MB-468 [29]) [%] | normalised response (HDQ-P1 [30]) [%] | normalised response (HCC1599 [31]) [%] | normalised response (CAL-148 [32]) [%] | normalised response (MDA-MB-436 [33]) [%] | normalised response (MCF-10A [34]) [%] | normalised response (MDA-MB-453 [35]) [%] | normalised response (HCC1937 [36]) [%]
1 | O=C(O)c1ccc(-c2c[nH]c3ncc(-c4ccccc4)cc23)cc1C1CCCC1 (10000 nM) | 92.7 | 86.7 | 74.5 | 99.3 | 94.5 | 89 | 94.1 | 95 | 97.8 | 86.2 | 57 | 107 | 105 | 105 | 94.4 | 84.2 | 97.1 | 105 | 58.7 | 63.4 | 95.4 | 99.3 | 119 | 99.2 | 117 | 92.8 | 66.2 | 117 | 97.5 | 90.1 | 91 | 94 | 91.6 | 57.9 | 83.6 | 102 | 
2 | NC(=O)Nc1cc(-c2cccc(F)c2)sc1C(=O)N[C@H]1CCCNC1 [AZD7762] (1000 nM) | 45.3 | 43 | 21.2 | 15.2 | 55.7 | 22.1 | 32 | 64.2 | 23.7 | 89.3 | 31.7 | 28 | 10.2 | 26.4 | 106 | 28.8 | 31.1 | 40.8 | 12 | 14.1 | 91.9 | 94.3 | -20.6 | 91.8 | 40.7 | 48.5 | 95.8 | 103 | 99.9 | 75.8 | 90.3 | 98 | 87.1 | 84.9 | 90.8 | 87 | 65.8
3 | COc1cc2ncnc(Nc3ccc(F)c(Cl)c3)c2cc1NC(=O)/C=C/CN1CCCCC1 [Dacomitinib] (1000 nM) | 116 | 86.8 | 80.9 | 46.8 | 95.6 | 90.7 | 84.5 | 93.1 | 94 | 97.8 | 65.3 | 68.1 | 105 | 84.3 | 83.9 | 84.4 | 35.8 | 56.2 | 21.1 | 109 |  | 74.8 | 38.7 | 98.7 | 115 | 103 | 99.5 | 75.7 | 99.1 | 121 | 94.1 | 99.1 | 96.7 |  | 96.8 | 96.3 | 
4 | CC(C)Cn1cnc2c(N)nc3ccccc3c21 [Imiquimod] (2500 nM) | 92.8 | 96 | 98 | 104 | 95.8 | 105 | 98.2 | 103 | 94.5 | 103 | 109 | 103 | 94.9 | 99.6 | 106 | 106 | 95 | 105 | 106 | 106 | 101 | 72.1 | 83.7 | 96.6 | 130 | 96.5 |  | 104 | 99.3 |  |  | 101 | 100 | 102 | 88.2 | 93.9 | 106
5 | N#CCNC(=O)c1ccc(-c2ccnc(Nc3ccc(N4CCOCC4)cc3)n2)cc1 [Momelotinib] (10000 nM) | 58 | 55.8 | 23.5 | 43.7 | 50.2 | 41.4 | 46.8 | 67.2 | 66.6 | 64.8 | 22.2 | 87.1 | 96.8 | 84.5 | 97.3 | 71 | 43 | 104 | 55.1 | 85.1 | 101 | 31.3 | 54.6 | 97.4 | 87 | 19 | 97.5 | 98 | 95.5 | 22 | 100 | 90 | 100 | 78 | 90.5 | 70.6 | 102
6 | CCCCCCCCCCCCCCCCCCOP(=O)([O-])OC1CC[N+](C)(C)CC1 [Perifosine] (2500 nM) | 80.7 | 104 | 111 | 102 | 104 | 96.9 | 104 | 92.6 | 99.1 | 95.9 | 97.5 | 84.7 | 86.3 | 52.7 | 79.9 | 87.9 | 63.7 | 98.6 | 60.4 | 96.4 | 95.6 | 56.7 | 97.4 | 107 | 128 | 106 | 90.3 | 67 | 95.7 | 133 | 109 | 99.3 | 96.9 | 78 | 117 | 83.9 | 108
7 | CS(=O)(=O)c1ccc(C2=C(c3ccccc3)C(=O)OC2)cc1 [Rofecoxib] (10000 nM) | 71.8 | 94.5 | 103 | 100 | 102 | 110 | 100 | 102 | 105 | 100 | 113 | 99.8 | 100 | 106 | 119 | 111 | 109 | 98.6 | 106 | 98.7 |  | 102 | 84.6 | 105 | 128 | 108 | 68.2 | 114 | 101 |  | 112 | 97.2 | 98.8 | 77.7 | 102 | 66.6 | 
8 | CCC(C)(C)C(=O)O[C@H]1C[C@@H](C)C=C2C=C[C@H](C)[C@H](CC[C@@H]3C[C@@H](O)CC(=O)O3)[C@H]21 [Simvastatin] (10000 nM) | 78.4 | 47.2 | 87.7 | 84.4 | 91.8 | 91.2 | 30 | 97.9 | 95.9 | 94.2 | 83.2 | 65 | 103 | 92.6 | 102 | 84.9 | 23.9 | 93.3 | 98.9 | 46.8 | 99.9 | 98.6 | 84.3 | 77.4 |  | -117 | 104 |  | 99 |  | 82.2 |  | 104 | 51.8 | 23.2 | 104 | 95.6
9 | CC(=O)Nc1ccc(C(=O)Nc2ccccc2N)cc1 [Tacedinaline] (1000 nM) | 113 | 95.2 | 107 | 103 | 105 | 92.1 | 95.7 | 99.7 | 100 | 98 | 108 | 98.5 | 120 | 97.2 | 95.2 | 95 | 99.7 | 98.7 | 98.9 | 96.2 | 97.7 | 114 | 92.3 | 101 | 99.3 | 111 | 105 | 75.3 | 99 | 58.9 | 104 | 98.2 | 97.9 | 107 | 77.3 | 98.2 | 83.6
